ChEMBL document CHEMBL3217702, “Oxadiazole isomers: all bioisosteres are not created equal” (Medchemcomm, 2012)
≈ marks a conversion by molar mass, not a printed value.

How the values were obtained:
[1] = Hexadecane-phosphate buffer distribution coefficient, log P of the compound at pH 7.4; format: physicochemical
[2] = Hydrolytic stability of the compound at 10 uM at pH 4 at 65 degC after 18 hrs in presence of 2-methoxyethanol; format: physicochemical; details: buffer, pH 4, 18 h
[3] = Hydrolytic stability of the compound at 10 uM at pH 6 at 65 degC after 18 hrs in presence of 2-methoxyethanol; format: physicochemical; details: buffer, pH 6, 18 h
[4] = Hydrolytic stability of the compound at 10 uM at pH 8 at 65 degC after 18 hrs in presence of 2-methoxyethanol; format: physicochemical; details: buffer, pH 8, 18 h
[5] = physchem; details: octanol/aqueous phosphate buffer, pH 7.4
Description: Octanol-aqueous phosphate buffer distribution coefficient, log P of the compound at pH 7.4

[6] = Intrinsic clearance in rat hepatocytes measured per 10^6 cells; format: ADME, cell-based, Hepatocyte; details: read-out: CLH
[7] = Intrinsic clearance in human microsomes; format: ADME, Microsome
[8] = Permeability from apical to basolateral side in human Caco2 cells; format: ADME, cell-based; details: Caco-2, read-out: permeability
[9] = Permeability from basolateral to apical side in human Caco2 cells; format: ADME, cell-based; details: Caco-2, read-out: permeability
[10] = Half life at 10 uM at pH 4 at 65 degC; format: physicochemical; details: buffer
[11] = Half life at 10 uM at pH 6 at 65 degC; format: physicochemical; details: buffer
[12] = Half life at 10 uM at pH 8 at 65 degC; format: physicochemical; details: buffer
[13] = Half life at 10 uM at pH 4 at 25 degC; format: physicochemical; details: buffer
[14] = Half life at 10 uM at pH 6 at 25 degC; format: physicochemical; details: buffer
[15] = Half life at 10 uM at pH 8 at 25 degC; format: physicochemical; details: buffer
[16] = Fraction unbound in human plasma; format: ADME, cell-free
[17] = Fraction unbound in mouse plasma; format: ADME, cell-free
[18] = Fraction unbound in rat plasma; format: ADME, cell-free
[19] = target: Voltage-gated inwardly rectifying potassium channel KCNH2 (Homo sapiens, UniProt Q12809); test: Inhibition of human ERG
[20] = physchem; details: aqueous phosphate buffer, pH 7.4
Description: Solubility of the compound in aqueous phosphate buffer at pH 7.4 at 25 degC after 24 hrs

Voltage-gated inwardly rectifying potassium channel KCNH2, sequence (Q12809 whole entry): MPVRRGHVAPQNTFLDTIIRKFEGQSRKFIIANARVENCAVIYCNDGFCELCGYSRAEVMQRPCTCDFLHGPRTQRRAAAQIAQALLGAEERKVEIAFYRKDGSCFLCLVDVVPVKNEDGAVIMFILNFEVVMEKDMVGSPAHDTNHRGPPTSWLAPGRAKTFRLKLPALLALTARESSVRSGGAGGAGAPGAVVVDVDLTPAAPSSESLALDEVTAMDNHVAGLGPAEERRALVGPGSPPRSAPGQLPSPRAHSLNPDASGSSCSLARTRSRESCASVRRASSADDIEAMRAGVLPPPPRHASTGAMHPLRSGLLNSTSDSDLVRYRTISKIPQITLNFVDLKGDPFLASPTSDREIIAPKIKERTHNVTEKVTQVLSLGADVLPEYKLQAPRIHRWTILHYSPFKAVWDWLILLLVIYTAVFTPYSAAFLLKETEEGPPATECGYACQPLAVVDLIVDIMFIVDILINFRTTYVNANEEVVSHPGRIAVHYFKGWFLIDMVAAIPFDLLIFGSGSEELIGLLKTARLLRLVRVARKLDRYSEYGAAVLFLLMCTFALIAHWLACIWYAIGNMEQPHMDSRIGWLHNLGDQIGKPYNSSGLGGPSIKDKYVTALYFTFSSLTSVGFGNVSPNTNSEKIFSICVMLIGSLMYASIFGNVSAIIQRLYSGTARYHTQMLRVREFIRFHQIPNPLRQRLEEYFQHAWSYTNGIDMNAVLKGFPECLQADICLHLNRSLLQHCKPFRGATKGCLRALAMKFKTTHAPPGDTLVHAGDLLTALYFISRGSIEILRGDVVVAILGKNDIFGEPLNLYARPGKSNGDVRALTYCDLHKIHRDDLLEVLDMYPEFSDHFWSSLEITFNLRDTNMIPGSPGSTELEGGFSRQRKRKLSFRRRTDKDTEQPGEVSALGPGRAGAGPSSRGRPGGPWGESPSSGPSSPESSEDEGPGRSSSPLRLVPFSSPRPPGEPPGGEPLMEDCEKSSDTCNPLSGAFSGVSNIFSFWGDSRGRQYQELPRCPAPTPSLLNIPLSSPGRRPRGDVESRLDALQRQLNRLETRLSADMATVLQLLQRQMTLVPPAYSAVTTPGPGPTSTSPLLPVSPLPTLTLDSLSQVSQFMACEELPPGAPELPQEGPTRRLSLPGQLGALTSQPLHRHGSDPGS

logP [1]	Stability [2]	Stability [3]	Stability [4]	logD [5]	hepatocyte CLint [6] [µL/min/1e6 cells]	microsomal CLint [7] [µL/min/mg]	Papp A→B [8] [×10⁻⁶ cm/s]	Papp B→A [9] [×10⁻⁶ cm/s]	half-life at 10 µM [10] [h]	half-life at 10 µM [11] [h]	half-life at 10 µM [12] [h]	half-life at 10 µM [13] [h]	half-life at 10 µM [14] [h]	half-life at 10 µM [15] [h]	fraction unbound [16]	fraction unbound [17]	fraction unbound [18]	solubility at 24 h [20] [µM]	Structure (SMILES)	IC50 [19] [µM]
1.4	Stable	Stable	Stable	2.8	–	–	–	–	–	–	–	–	–	–	–	–	–	–	C[C@@H]1CN(c2noc(C(F)F)n2)CCN1c1ncc(OCc2ccncc2C#N)cn1	–
–	Stable	Stable	Stable	–	72	55	–	–	–	–	–	–	–	–	–	–	–	–	CC(C)c1noc(N2CCN(c3ncc(OCc4ccncc4C#N)cn3)[C@H](C)C2)n1	–
1.3	Stable	Stable	Stable	–	70	48	15	6	–	–	–	–	–	–	–	–	–	–	CC(C)c1nc(N2CCN(c3ncc(OCc4ccncc4C#N)cn3)[C@H](C)C2)no1	–

Continued, compound first:

Structure (SMILES)	logP [1]	Stability [2]	Stability [3]	Stability [4]	logD [5]	hepatocyte CLint [6] [µL/min/1e6 cells]	microsomal CLint [7] [µL/min/mg]	Papp A→B [8] [×10⁻⁶ cm/s]	Papp B→A [9] [×10⁻⁶ cm/s]	half-life at 10 µM [10] [h]	half-life at 10 µM [11] [h]	half-life at 10 µM [12] [h]	half-life at 10 µM [13] [h]	half-life at 10 µM [14] [h]	half-life at 10 µM [15] [h]	fraction unbound [16]	fraction unbound [17]	fraction unbound [18]	solubility at 24 h [20] [µM]	IC50 [19] [µM]
C[C@@H]1CN(c2nnc(C(F)(F)F)o2)CCN1c1ncc(OCc2ccncc2C#N)cn1	0.5	Stable	Stable	Stable	2.7	53	34	18	21	–	–	–	–	–	–	–	–	–	–	–
C[C@@H]1CN(c2noc(C(F)(F)F)n2)CCN1c1ncc(OCc2ccncc2C#N)cn1	2.9	Unstable	Unstable	Unstable	–	42	28	23	6	6.96	8.64	2.88	137	214	127	–	–	–	–	–
C[C@@H]1CN(c2nc(C(F)(F)F)no2)CCN1c1ncc(OCc2ccncc2C#N)cn1	1.4	Stable	Stable	Stable	–	52	40	13	6	–	–	–	–	–	–	–	–	–	–	–
CC(C)c1nnc(N2CCN(c3ncc(OCc4ccncc4C#N)cn3)[C@H](C)C2)o1	-0.5	Stable	Stable	Stable	2.6	63	47	16	13	–	–	–	–	–	–	0.071	0.131	0.087	150 (≈ 63.1 µg/mL)	> 28
